Assay results taken from patent US6472435B1, “Anti-tumor agents” (Astrazeneca AB, priority 1998, dated 2002).
pEC50: −log10 of the molar value.

Key:
[1] = system: spheroidal aggregates of EMT6 murine breast cancer cells; assay: Test (c): growth inhibition of spheroidal aggregates of EMT6 murine breast cancer cells; assay type: cell-based; settings: Mus musculus, 2 hours treatment, stasis of spheroid growth over 2-3 weeks, read-out: stasis ED50
Description: (c) An in vitro assay which determines the ability of a test compound to inhibit the growth in an oxygenated culture medium of spheroidal aggregates (˜400 microns in diameter) of EMT6 murine breast cancer cells. As the oxygen diffusion distance through tissue is approximately 120-150 microns, such spheroids have a chronically hypoxic central population of cells and a well oxygenated outer layer of cells. The multicellular spheroids were treated with test compounds for 2 hours as a well oxygenated suspension culture. The spheroids were subsequently washed free of test compound and selected spheroids were transferred to static culture so that the effect of treatment on volume growth could be measured. […]
EMT6 murine breast cells (obtained from P. R. Twentyman, MRC Oncology and Radiotherapeutics Unit, Cambridge, UK) were harvested from exponentially growing monolayer cultures and approximately 1×10^6 cells were used to inoculate a 500 ml spinner culture vessel containing Eagles minimal essential medium (200 ml; supplemented with 10% foetal calf serum, glutamate, non-essential amino acids, penicillin and streptomycin). […] The area of each spheroid was measured using an image analyser and the 24-well plates were transferred to a CO2 incubator at 37° C. The spheroids were then re-measured every 2-3 days for up to 21 days, with fresh culture medium (250 μl) being added to each well every 3 days. […]

[2] = system: T18 murine breast tumours; assay: Test (d): in vivo growth delay of T18 murine breast tumours in Balb/c mice; settings: single bolus dose of 20 mg/kg intraperitoneally
Excerpt: (d) An in vivo assay in a group of Balb/c mice which determines the ability of a test compound to delay the growth of T18 murine breast tumours. The detailed methodology was as follows:
T18 murine breast tumour tissue was routinely maintained by animal to animal passage. To prepare a batch of tumours for an experiment, tumour tissue was removed from several donor Balb/c mice and placed in saline. Outer tissue was removed and healthy looking regions of tumour were cut into approximately 1 mm^3 pieces and implanted subcutaneously by trocar into the left flanks of anaesthetised female Balb/c mice. After 2-3 weeks, most of the implants had grown to approximately 8 mm in diameter. The animals were placed randomly into groups of 6-7, rejecting any with very large, or small, tumours. Each test compound was dissolved in DMSO and diluted with Cremophor EL followed by saline, to give a 1:1:3 mixture of DMSO, Cremophor EL and saline. Each test compound was administered by the intraperitoneal route as a single bolus dose (0.1 ml per 10 g body weight of each animal). Control animals received vehicle alone. All mice were weighed daily and the dimensions (length and width) of each tumour were measured every 2-3 days using vernier calipers. […] Growth curves were constructed and the effect of treatment was assessed using a growth delay endpoint.

Q: How did the pEC50 [1] turn out when `CCCC1=C(C(C)(C)CC(=O)N(C)c2ccc(N(CCCl)CCCl)cc2)C(=O)C=C(C)C1=O` [Example 1, N-{4-[bis(2-chloroethyl)amino]phenyl}-3-(5-methyl-3-propyl-1,4-benzoquinon-2-yl)-3-methyl-N-methylbutyramide] was run?
A: Its pEC50 is ~5.40.

Q: And the growth delay [2]?
A: Its growth delay is “approximately 9 days”.
